Reference: the supplement of paper PMC10307832

Tests used:
Assay in all cases: relative viability (nuclei count vs DMSO), 5 days (fraction); higher = more cells survive
Trametinib + Lapatinib = compound: CC(=O)Nc1cccc(-n2c(=O)n(C3CC3)c(=O)c3c(Nc4ccc(I)cc4F)n(C)c(=O)c(C)c32)c1 [Trametinib] + CS(=O)(=O)CCNCc1ccc(-c2ccc3ncnc(Nc4ccc(OCc5cccc(F)c5)c(Cl)c4)c3c2)o1 [Lapatinib] (partner 2 µM)
Summary of the method: (§1)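 Values are medians from duplicate plates. Each reflects relative viability, defined as the nuclei count of treated wells over that of vehicle wells. Lung cancer cell lines in 1536-well plates were pin-tool dosed one day after seeding with one drug alone or with a fixed anchor-drug dose plus five library-drug doses (not always all listed) in √10 steps, then fixed, stained and imaged at 4× after 5 days.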

Trametinib + Dasatinib = compound: CC(=O)Nc1cccc(-n2c(=O)n(C3CC3)c(=O)c3c(Nc4ccc(I)cc4F)n(C)c(=O)c(C)c32)c1 [Trametinib] + Cc1nc(Nc2ncc(C(=O)Nc3c(C)cccc3Cl)s2)cc(N2CCN(CCO)CC2)n1 [Dasatinib] (partner 0.075 µM)
Summary of the method: as §1

Trametinib + Decitabine = compound: CC(=O)Nc1cccc(-n2c(=O)n(C3CC3)c(=O)c3c(Nc4ccc(I)cc4F)n(C)c(=O)c(C)c32)c1 [Trametinib] + Nc1ncn([C@H]2C[C@H](O)[C@@H](CO)O2)c(=O)n1 [Decitabine] (partner 2 µM)
Summary of the method: as §1

[1] = compound: CN1C=C(C2=CC=CC=C21)/C=C\3/C4=C(C=CC=N4)NC3=O + CC(=O)Nc1cccc(-n2c(=O)n(C3CC3)c(=O)c3c(Nc4ccc(I)cc4F)n(C)c(=O)c(C)c32)c1 [Trametinib] (partner 0.02 µM)
Summary of the method: as §1

Row | Cell Line | relative viability (Trametinib + Lapatinib; first compound 0.0025 µM) | relative viability (Trametinib + Lapatinib; first compound 0.007906 µM) | relative viability (Trametinib + Lapatinib; first compound 0.025 µM) | relative viability (Trametinib + Lapatinib; first compound 0.07906 µM) | relative viability (Trametinib + Lapatinib; first compound 0.25 µM) | relative viability (Trametinib + Dasatinib; first compound 0.0025 µM) | relative viability (Trametinib + Dasatinib; first compound 0.007906 µM) | relative viability (Trametinib + Dasatinib; first compound 0.025 µM) | relative viability (Trametinib + Dasatinib; first compound 0.07906 µM) | relative viability (Trametinib + Dasatinib; first compound 0.25 µM) | relative viability (Trametinib + Decitabine; first compound 0.0025 µM) | relative viability (Trametinib + Decitabine; first compound 0.007906 µM) | relative viability (Trametinib + Decitabine; first compound 0.025 µM) | relative viability (Trametinib + Decitabine; first compound 0.07906 µM) | relative viability (Trametinib + Decitabine; first compound 0.25 µM) | relative viability ([1]; first compound 0.02 µM) | relative viability ([1]; first compound 0.06325 µM) | relative viability ([1]; first compound 0.2 µM) | relative viability ([1]; first compound 0.6325 µM) | relative viability ([1]; first compound 2 µM)
1 | NCI-H2126 | 0.721 | 0.675 | 0.46 | 0.703 | 0.718 | 0.452 | 0.44 | 0.395 | 0.412 | 0.445 | 0.574 | 0.558 | 0.514 | 0.535 | 0.523 | 0.558 | 0.55 | 0.564 | 0.212 | 0.506
2 | 201T | 1.06 | 0.922 | 0.93 | 0.879 | 0.928 | 0.555 | 0.59 | 0.579 | 0.521 | 0.484 | 0.854 | 0.743 | 0.765 | 0.782 | 0.749 | 0.758 | 0.727 | 0.754 | 0.797 | 0.763
3 | HCC-78 | 0.827 | 0.533 | 0.988 | 0.299 | 0.469 | 0.359 | 0.265 | 0.23 | 0.294 | 0.25 | 0.81 | 0.662 | 0.621 | 0.683 | 0.66 | 0.522 | 0.675 | 0.706 | 0.553 | 0.694
4 | NCI-H358 | 0.38 | 0.376 | 0.309 | 0.295 | 0.328 | 0.137 | 0.117 | 0.103 | 0.11 | 0.143 | 0.2 | 0.191 | 0.142 | 0.209 | 0.155 | 0.12 | 0.127 | 0.116 | 0.136 | 0.117
5 | SK-LU-1 | 0.791 | 0.721 | 0.538 | 0.426 | 0.304 | 0.192 | 0.183 | 0.148 | 0.15 | 0.159 | 0.585 | 0.632 | 0.473 | 0.431 | 0.455 | 0.414 | 0.475 | 0.475 | 0.416 | 0.533
6 | H3255 | 0.246 | 0.188 | 0.269 | 0.201 | 0.236 | 0.512 | 0.334 | 0.288 | 0.238 | 0.346 | 0.552 | 0.572 | 0.487 | 0.518 | 0.378 | 0.726 | – | 0.57 | 0.775 | 0.668
7 | LOU-NH91 | 0.745 | 0.736 | 0.603 | 0.753 | 0.414 | 0.528 | 0.498 | 0.468 | 0.426 | 0.296 | 0.804 | 0.776 | 0.734 | 0.71 | 0.544 | 0.749 | 0.751 | 0.746 | 0.678 | 0.74
8 | NCI-H1666 | 0.354 | 0.414 | 0.405 | 0.387 | 0.265 | 0.812 | 0.841 | 0.755 | 0.666 | 0.506 | 0.742 | 0.684 | 0.622 | 0.602 | 0.5 | 0.987 | 0.832 | 0.901 | 0.857 | 0.925
9 | SK-MES-1 | 0.447 | 0.39 | 0.352 | 0.362 | 0.344 | 0.324 | 0.313 | 0.208 | 0.171 | 0.156 | 0.381 | 0.304 | 0.341 | 0.247 | 0.273 | 0.509 | 0.603 | 0.538 | 0.596 | 0.54
10 | NCI-H2023 | 0.947 | 0.356 | 0.383 | 0.579 | 0.181 | 0.484 | 0.485 | 0.515 | 0.34 | 0.221 | 0.211 | 0.187 | 0.237 | 0.207 | 0.154 | 0.528 | 0.571 | – | 0.378 | 0.43
11 | COR-L 105 | 0.37 | 0.413 | 0.332 | 0.381 | 0.326 | 0.319 | 0.289 | 0.194 | 0.153 | 0.17 | 0.64 | 0.609 | 0.486 | 0.375 | 0.36 | 0.402 | 0.462 | 0.396 | 0.512 | 0.506
12 | NCI-H838 | 0.846 | 0.933 | – | 0.634 | 0.428 | 0.251 | 0.322 | 0.214 | 0.27 | 0.249 | 0.466 | 0.416 | 0.457 | 0.448 | 0.403 | 0.467 | 0.413 | 0.527 | 0.469 | 0.459
13 | SW 1573 | 0.875 | 0.925 | 0.769 | 0.82 | 0.56 | 0.513 | 0.389 | 0.371 | 0.323 | 0.266 | 0.393 | 0.37 | 0.317 | 0.308 | 0.181 | 0.531 | 0.576 | 0.571 | 0.687 | 0.712
